According to patent publication US7521062B2, “Thiosemicarbazones as anti-virals and immunopotentiators” (Novartis Vaccines & Diagnostics, Inc., priority 2002, dated 2009):

What was measured:
[1] = test system: TNF-alpha production by human PBMC; test: TNF-alpha production by human PBMC (ELISA); format: cell-based; settings: for TNFa production: cytokine secretion of hPBMC after stimulation with thiosemicarbazone compounds; for SMIP activity (cytokine induction, TNF-alpha and IL-12 p40, % of LPS activity): human PBMC, 5 μM, FIG. 4
Procedure: Candidate small molecule immuno-potentiators can be identified in vitro. Compounds are screened in vitro for their ability to stimulate human peripheral blood mononuclear cells to produce cytokines (e.g. TNF-alpha and IL-12 p40). HCV antivirals were identified having this activity. These small molecule immuno-potentiators have potential utility as adjuvants and immuno-therapeutics.
TNF-alpha production by human PBMC was measured using a commercial ELISA from supernatants of cells stimulated with the indicated compounds for 18 to 24 hours All test compounds were used at a final concentration of 5 μM/ml. Untreated PBMC (Cells) and LPS (0.1 ng/ml), CPG (10 ng/ml) and/or ALTTE (5 μM/ml) treated PBMC served as negative and positive controls, respectively.
Table 2. Cytokine secretion of hPBMC after stimulation with thiosemicarbazone compounds.
High Throughput Screening (ITS) for small molecule immune potentiators; SMIPs: Attention is drawn to FIG. 3. Various compounds were evaluated for their ability to produce cytokines in response to the small molecule compounds using a modified sandwich ELISA. Compounds are screened for their TNF inducing. “Hits” are selected based on their TNF-inducing activity relative to an optimal dose a strong TNF inducer. The robustness of the assay and low backgrounds have allowed for the routine selection of hits with ˜10% of this activity which is normally between 5-10× background (cells alone). Selected hits are then subjected to confirmation for their ability to induce cytokines from multiple donors at decreasing concentrations. Those compounds with consistent activity at or below 5 μM are considered confirmed.
Thiosemicarbazones compounds with and without anti-HCV activity were screened for their capacity to activate immune cells. Structural analogs of this scaffold have been tested for their ability to induce cytokines from human PBMC and murine splenocytes. […] All compounds were tested at a final concentration of 5 μM except for poly I:C (PIC) and the 1806 oligodinucleotide (CpG) which were used at 10 μg/ml and 10 ng/ml respectively.

[2] = test system: HCV replicon RNA in Huh-11-7 or Huh 9-13 cells; test: HCV replicon cell based assay (quantification of HCV replicon RNA by RT-PCR, normalized to GAPDH); settings: separate/independent assays
Procedure: Quantification of HCV replicon RNA in Cell Lines (HCV Cell Based Assay):
Cell lines, including Huh-11-7 or Huh 9-13, harboring HCV replicons (Lohmann, et al Science 285:110-113, 1999) are seeded at 5×10^3 cells/well in 96 well plates and fed media containing DMEM (high glucose), 10% fetal calf serum, penicillin-streptomycin and non-essential amino acids. Cells are incubated in a 5% CO2 incubator at 37° C. At the end of the incubation period, total RNA is extracted and purified from cells using Qiagen Rneasy 96 Kit (Catalog No. 74182). To amplify the HCV RNA so that sufficient material can be detected by an HCV specific probe (below), primers specific for HCV (below) mediate both the reverse transcription (RT) of the HCV RNA and the amplification of the cDNA by polymerase chain reaction (PCR) using the TaqMan One-Step RT-PCR Master Mix Kit (Applied Biosystems catalog no. 4309169). […]
Detection of the RT-PCR product was accomplished using the Applied Biosystem (ABI) Prism 7700 Sequence Detection System (SDS) that detects the fluorescence that is emitted when the probe, which is labeled with a fluorescence reporter dye and a quencher dye, is processed during the PCR reaction. The increase in the amount of fluorescence is measured during each cycle of PCR and reflects the increasing amount of RT-PCR product. […] The data is analyzed using the ABI SDS program version 1.7. […]

Row | Structure (SMILES) | TNFa production [1] [ng/10^6 cells/ml] | anti-HCV activity [2] | SMIP activity (cytokine induction, TNF-alpha and IL-12 p40, % of LPS activity) [1]
1 | NC(=S)N/N=C/c1cccc(OCc2ccccc2)c1 [Example 7, 3-[(phenylmethyl)oxy]benzaldehydethiosemicarbazone] | 0 | – | –
2 | NC(=S)N/N=C/c1ccc(-c2cccc(Cl)c2)o1 [Example 12, 5-(3-chlorophenyl)furan-2-carbaldehyde thiosemicarbazone] | 2.32 | – | –
3 | CCN(CC)c1ccc(/C=N/NC(N)=S)c(OCc2ccc(Cl)cc2)c1 [Example 29, 2-{[(4-chlorophenyl)methyl]oxy}-4-(diethylamino)benzaldehydethiosemicarbazone] | – | possess both SMIP and anti-HCV activity | possess both SMIP and anti-HCV activity
4 | COc1cc(/C=N/NC(N)=S)cc(Br)c1OCc1ccccc1F [Example 39, 3-bromo-4-{[(2-fluorophenyl)methyl]oxy}-5-(methyloxy)benzaldehydethiosemicarbazone] | 5 | – | –
5 | NC(=S)N/N=C/c1ccc(NCCc2cccc(Cl)c2)c([N+](=O)[O-])c1 [Example 86, 4-{[2-(3-chlorophenyl)ethyl]amino}-3-nitrobenzaldehydethiosemicarbazone] | 5 | – | –
6 | NC(=S)N/N=C/c1ccc(NCCc2ccc(Cl)cc2)c([N+](=O)[O-])c1 [Example 87, 4-{[2-(4-chlorophenyl)ethyl]amino}-3-nitrobenzaldehydethiosemicarbazone] | 1.25 | – | –
7 | NC(=S)N/N=C/c1ccccn1 [Example 113, pyridine-2-carbaldehydethiosemicarbazone] | 2.34 | weak or absent anti-HCV effects | potent SMIP activity
8 | C/C(=N\NC(N)=S)c1sc(-c2ncc(C(F)(F)F)cc2Cl)nc1C [Example 114] | 1.7 | – | –
9 | Cc1ccc2c(c1)c1c(n2C)/C(=N/NC(N)=S)CCC1 [Example 115, (1E)-6,9-dimethyl-2,3,4,9-tetrahydro-1H-carbazol-1-onethiosemicarbazone] | 1.25 | – | –
